“And” between values parts separate entries of the source, which are not always exact repeats. Equal values may be shown once.
SMILES	melting point
COc1ccc(CN(C(=O)Nc2ccc(C(=O)O)cc2)c2ccc3c(c2)C(C)(C)CCC3(C)C)cc1 [Compound 23, 4-[3-(4-methoxybenzyl)-3-(5,5,8,8-tetramethyl-5,6,7,8-tetrahydro-naphthalen-2-yl)-ureido]-benzoic acid]	117 to 121 °C and 116.8 to 120.8 °C
CC1(C)CCC(C)(C)c2cc(N(Cc3cccs3)C(=O)Nc3ccc(C(=O)O)cc3)ccc21 [Compound 31, 4-[3-(5,5,8,8-tetramethyl-5,6,7,8-tetrahydro-naphthalen-2yl)-3-thiophen-2-ylmethyl-ureido]-benzoic acid]	167 to 170 °C and 167.1 to 170.1 °C
CCCCCN(C(=O)Nc1ccc2c(c1)C(C)(C)CCC2(C)C)c1ccc(C(=O)O)cc1 [Compound 42, 4-[1-pentyl-3-(5,5,8,8-tetramethyl-5,6,7,8-tetrahydro-naphthalen-2-yl)-ureido]-benzoic acid]	201 to 202 °C
CC1(C)CCC(C)(C)c2cc(N(CCCCO)C(=O)Nc3ccc(C(=O)O)cc3)ccc21 [Compound 71, 4-[3-(4-hydroxy-butyl)-3-(5,5,8,8-tetramethyl-5,6,7,8-tetrahydro-naphthalen-2-yl)-ureido]-benzoic acid]	124 to 125 °C
CCN(C(=O)N(CC)c1ccc2c(c1)C(C)(C)CCC2(C)C)c1ccc(C(=O)O)cc1 [Compound 73, 4-[1,3-diethyl-3-(5,5,8,8-tetramethyl-5,6,7,8-tetrahydro-naphthalen-2-yl)-ureido]-benzoic acid]	169 to 172 °C

More lines, now with the values ahead:

melting point	SMILES
223 to 225 °C and 223 to 224.9 °C	CC1(C)CCC(C)(C)c2cc(N(CCc3ccccc3)C(=O)Nc3ccc(C(=O)O)cc3)ccc21 [Compound 5, 4-[3-phenethyl-3-(5,5,8,8-tetramethyl-5,6,7,8-tetrahydro-naphthalen-2-yl)-ureido]-benzoic acid]
143 to 146 °C and 143.1 to 145.9 °C	CC1(C)CCC(C)(C)c2cc(N(Cc3ccc(F)cc3)C(=O)Nc3ccc(C(=O)O)cc3)ccc21 [Compound 19, 4-[3-(4-fluorobenzyl)-3-(5,5,8,8-tetramethyl-5,6,7,8-tetrahydro-naphthalen-2-yl)-ureido]-benzoic acid]
126 to 133.1 °C and 126 to 133 °C	CC1(C)CCC(C)(C)c2cc(N(Cc3ccc(Cl)cc3)C(=O)Nc3ccc(C(=O)O)cc3)ccc21 [Compound 21, 4-[3-(4-chlorobenzyl)-3-(5,5,8,8-tetramethyl-5,6,7,8-tetrahydro-naphthalen-2-yl)-ureido]-benzoic acid]
82 to 85 °C	CCOCCN(C(=O)Nc1ccc(C(=O)O)cc1)c1ccc2c(c1)C(C)(C)CCC2(C)C [Compound 33, 4-[3-(2-ethoxy-ethyl)-3-(5,5,8,8-tetramethyl-5,6,7,8-tetrahydro-naphthalen-2-yl)-ureido]-benzoic acid]
158 to 162 °C	CC1(C)CCC(C)(C)c2cc(N(CCCCOCc3ccccc3)C(=O)Nc3ccc(C(=O)O)cc3)ccc21 [Compound 41, 4-[3-(4-benzyloxy-butyl)-3-(5,5,8,8-tetramethyl-5,6,7,8-tetrahydro-naphthalen-2-yl)-ureido]-benzoic acid]
175 to 179.5 °C	CCCCCN(C(=O)Nc1ccc(C(=O)O)cn1)c1ccc2c(c1)C(C)(C)CCC2(C)C [Compound 49, 6-[3-pentyl-3-(5,5,8,8-tetramethyl-5,6,7,8-tetrahydro-naphthalen-2-yl) -ureido]-nicotinic acid]
188 to 193 °C and 188.2 to 193 °C	Cc1cc(CN(C(=O)Nc2ccc(C(=O)O)cc2)c2ccc3c(c2)C(C)(C)CCC3(C)C)no1 [Compound 57, 4-[3-(5-methyl-isoxazol-3-ylmethyl)-3-(5,5,8,8-tetramethyl-5,6,7,8-tetrahydro-naphthalen-2-yl)-ureido]-benzoic acid]
